# Reference: patent publication US9018215B2, “Heteroaromatic compounds, medicaments containing said compounds, use thereof and processes for the preparation thereof” (Boehringer Ingelheim International GmbH, priority 2013, dated 2015)
# Biological target: T1, ENaC (Epithelial Sodium Channel) (Mus musculus, UniProt Q61180+Q9WU38+Q9WU39)
# T1 construct: Mouse kidney M-1 cells were cultivated in DMEM containing 5% FCS and 5 μM dexamethasone; endogenous in cells; host or cells: mouse kidney M-1 cells
# T1 sequence (Q61180 1-699): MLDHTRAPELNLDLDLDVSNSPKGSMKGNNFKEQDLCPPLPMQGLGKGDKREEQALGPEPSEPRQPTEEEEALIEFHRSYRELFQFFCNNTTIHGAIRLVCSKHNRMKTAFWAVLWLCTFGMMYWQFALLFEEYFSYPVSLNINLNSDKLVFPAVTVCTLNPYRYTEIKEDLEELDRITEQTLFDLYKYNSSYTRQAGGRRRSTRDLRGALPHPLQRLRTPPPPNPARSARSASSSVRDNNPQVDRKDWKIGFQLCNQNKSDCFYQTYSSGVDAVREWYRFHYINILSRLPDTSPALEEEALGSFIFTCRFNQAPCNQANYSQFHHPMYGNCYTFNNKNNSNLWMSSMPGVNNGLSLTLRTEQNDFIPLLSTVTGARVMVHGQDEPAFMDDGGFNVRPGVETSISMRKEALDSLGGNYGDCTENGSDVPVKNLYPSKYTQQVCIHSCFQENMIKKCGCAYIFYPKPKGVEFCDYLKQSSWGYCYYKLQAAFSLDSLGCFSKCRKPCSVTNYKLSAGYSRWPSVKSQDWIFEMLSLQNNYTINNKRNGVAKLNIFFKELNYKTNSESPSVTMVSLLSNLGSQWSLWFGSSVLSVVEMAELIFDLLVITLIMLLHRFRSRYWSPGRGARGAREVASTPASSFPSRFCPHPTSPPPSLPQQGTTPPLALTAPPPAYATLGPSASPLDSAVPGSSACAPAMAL
# T1 sequence (Q9WU38 1-638): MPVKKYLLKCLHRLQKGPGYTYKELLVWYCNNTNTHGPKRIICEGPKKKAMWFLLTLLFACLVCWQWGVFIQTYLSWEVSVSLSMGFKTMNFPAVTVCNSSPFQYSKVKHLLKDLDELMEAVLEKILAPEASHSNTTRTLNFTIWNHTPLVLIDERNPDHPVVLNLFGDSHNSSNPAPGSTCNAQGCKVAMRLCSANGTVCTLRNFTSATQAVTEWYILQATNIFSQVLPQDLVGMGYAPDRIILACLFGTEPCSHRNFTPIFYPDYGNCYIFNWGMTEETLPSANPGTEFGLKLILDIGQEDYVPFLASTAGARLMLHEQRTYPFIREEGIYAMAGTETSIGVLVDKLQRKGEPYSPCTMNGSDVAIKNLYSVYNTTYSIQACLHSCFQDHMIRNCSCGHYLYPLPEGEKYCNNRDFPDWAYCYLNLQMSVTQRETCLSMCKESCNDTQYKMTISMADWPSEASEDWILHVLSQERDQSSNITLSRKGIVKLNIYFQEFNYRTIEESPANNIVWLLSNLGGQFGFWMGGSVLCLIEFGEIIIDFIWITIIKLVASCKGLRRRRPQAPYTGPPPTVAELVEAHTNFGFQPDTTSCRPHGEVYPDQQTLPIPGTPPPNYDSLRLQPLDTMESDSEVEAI
# T1 sequence (Q9WU39 1-655): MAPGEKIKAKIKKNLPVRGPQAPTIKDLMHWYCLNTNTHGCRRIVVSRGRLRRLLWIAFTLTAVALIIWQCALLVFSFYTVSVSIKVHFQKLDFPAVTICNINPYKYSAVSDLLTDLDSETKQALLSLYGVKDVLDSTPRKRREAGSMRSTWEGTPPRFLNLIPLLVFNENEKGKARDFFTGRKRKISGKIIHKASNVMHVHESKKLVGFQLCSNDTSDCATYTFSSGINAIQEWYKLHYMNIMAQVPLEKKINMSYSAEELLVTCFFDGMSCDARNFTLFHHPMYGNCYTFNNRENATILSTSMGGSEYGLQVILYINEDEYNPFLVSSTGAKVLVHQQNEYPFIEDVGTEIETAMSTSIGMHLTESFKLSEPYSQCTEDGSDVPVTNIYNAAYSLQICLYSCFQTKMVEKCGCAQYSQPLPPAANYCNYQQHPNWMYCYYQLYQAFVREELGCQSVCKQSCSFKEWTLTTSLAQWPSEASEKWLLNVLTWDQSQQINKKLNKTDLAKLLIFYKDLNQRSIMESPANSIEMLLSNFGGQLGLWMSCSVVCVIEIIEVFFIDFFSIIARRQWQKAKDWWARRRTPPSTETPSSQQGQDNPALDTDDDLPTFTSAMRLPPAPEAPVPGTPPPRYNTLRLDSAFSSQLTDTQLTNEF
# Experiment: Ussing chamber assay: short circuit current (I_sc) in M-1 cells, inhibition of the amiloride sensitive I_SC
# Assay type: cell-based
# Conditions: Mouse kidney M-1 cells on transwell filters, compounds added to the apical solution, 37° C., voltage-clamp mode
# Protocol: Mouse kidney M-1 cells were cultivated in DMEM containing 5% FCS and 5 μM dexamethasone for 10 to 12 days on polyester transwell filters. Filters were inserted into a teflon-coated well-plate which fit into the in-house ussing chamber system. Prior to measurement the medium of M-1 cells was replaced with Caco-2 transport buffer (Invitrogen, Germany). During measurements, the Ussing chamber temperature was kept at 37° C. Short circuit currents (I_sc) were measured in the voltage-clamp mode using an in-house built amplifier (Boehringer Ingelheim, Biberach) with the software package Lab View for data acquisition and analysis. The transepithelial electrical resistance (TEER) was determined by the application of voltage steps of ±5 mV every 5 sec. Compounds were administered at a final concentration of 3 μM or at increasing concentrations (1-3-10 μM) to the apical solution. At the end of each experiment the amiloride sensitive I_SC was measured by adding 3 μM amiloride to the apical compartment. Results are expressed as inhibition in percent of the amiloride effect or as IC50. With the example compounds given above, the following IC50 values were determined in the Ussing Chamber assay: […]
row,Structure (SMILES),IC50 [nM]
1,COC(=O)c1cc(CN2CCC(N/C(N)=N/C(=O)c3nc(Cl)c(N)nc3N)CC2)ccn1 [Example 1.1],3
2,NC(=NC(=O)c1nc(Cl)c(N)nc1N)NC1CCN(Cc2ccnc(C(=O)N(CCO)CCO)c2)CC1 [Example 1.2],10
3,NC(=NC(=O)c1nc(Cl)c(N)nc1N)NC1CCN(Cc2cn3cc(C(=O)NCCOCCO)ccc3n2)CC1 [Example 1.3],18
4,NC(=NC(=O)c1nc(Cl)c(N)nc1N)NC1CCN(Cc2ccc(CCc3cccnc3)nc2)CC1 [Example 1.4],3
5,NC(=NC(=O)c1nc(Cl)c(N)nc1N)NC1CCN(Cc2ccccn2)CC1 [Example 1.5],15
6,NC(=NC(=O)c1nc(Cl)c(N)nc1N)NC1CCN(Cc2ccc(=O)n(Cc3cccnc3)c2)CC1 [Example 1.6],9
7,COC(=O)c1ccc2nc(CN3CCC(NC(N)=NC(=O)c4nc(Cl)c(N)nc4N)CC3)cn2c1 [Example 1.7],4
8,NC(=NC(=O)c1nc(Cl)c(N)nc1N)NC1CCN(Cc2cn3cc(C(=O)NCCO)ccc3n2)CC1 [Example 1.8],11
9,NC(=NC(=O)c1nc(Cl)c(N)nc1N)NC1CCN(Cc2cscn2)CC1 [Example 1.9],17
10,NC(=NC(=O)c1nc(Cl)c(N)nc1N)NC1CCN(Cc2nc3ccccc3c(=O)[nH]2)CC1 [Example 1.10],4
11,COC(=O)c1ccc(CN2CCC(NC(N)=NC(=O)c3nc(Cl)c(N)nc3N)CC2)s1 [Example 1.11],3
12,C#Cc1cncc(CN2CCC(NC(N)=NC(=O)c3nc(Cl)c(N)nc3N)CC2)c1 [Example 1.12],4
13,NC(=NC(=O)c1nc(Cl)c(N)nc1N)NC1CCN(Cc2cn3cc(I)ccc3n2)CC1 [Example 1.13],3
14,NC(=NC(=O)c1nc(Cl)c(N)nc1N)NC1CCN(Cc2ccnc(C(=O)NCCOCCO)c2)CC1 [Example 1.14],4
15,NC(=NC(=O)c1nc(Cl)c(N)nc1N)NC1CCN(Cc2cn3ccccc3n2)CC1 [Example 1.15],6
16,NC(=NC(=O)c1nc(Cl)c(N)nc1N)NC1CCN(Cc2nc3ccccc3[nH]2)CC1 [Example 1.16],5
17,NC(=NC(=O)c1nc(Cl)c(N)nc1N)NC1CCN(Cc2ccc(Br)nc2)CC1 [Example 1.17],5
18,COC(=O)c1cc(CN2CCC(N/C(N)=N/C(=O)c3nc(Br)c(N)nc3N)CC2)ccn1 [Example 1.19],4
19,N/C(=N\C(=O)c1nc(Cl)c(N)nc1N)NC1CCN(Cc2ccc(=O)n(Cc3cn(Cc4ccccn4)nn3)c2)CC1 [Example 2.1],6
20,N/C(=N\C(=O)c1nc(Cl)c(N)nc1N)NC1CCN(Cc2cncc(-c3cn(CCOCCOCCOCCO)nn3)c2)CC1 [Example 2.2],12
21,N/C(=N\C(=O)c1nc(Cl)c(N)nc1N)NC1CCN(Cc2ccnc(C(=O)O)c2)CC1 [Example 3.1],21
22,N/C(=N\C(=O)c1nc(Cl)c(N)nc1N)NC1CCN(Cc2ccc(C(=O)O)s2)CC1 [Example 3.2],31
23,N/C(=N\C(=O)c1nc(Br)c(N)nc1N)NC1CCN(Cc2ccnc(C(=O)O)c2)CC1 [Example 4.1],16
